The source of these data is article PMC12948223, “HSP70 Interactome‐Mediated Proteolysis Targeting Chimera (HSP70‐PROTAC) for Ferroptosis‐Driven Cancer Treatment” (Advanced Science, 2025).

For data set [1], the target named is T1, GPX4 (Homo sapiens, UniProt P36969).
T1 sequence (P36969 1-170 isoform P36969-2): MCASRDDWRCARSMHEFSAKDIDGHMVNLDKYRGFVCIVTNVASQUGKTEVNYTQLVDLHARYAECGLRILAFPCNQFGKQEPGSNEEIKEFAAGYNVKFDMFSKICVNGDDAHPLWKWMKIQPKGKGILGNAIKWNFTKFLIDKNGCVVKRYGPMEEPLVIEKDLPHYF
Put plainly: GPX4 and 4-HNE in HT1080 xenograft tumor tissue (IHC, western blot). Format: in vivo, nude mice. The arrangement: from tissue; host or cells: HT1080 xenograft tumour tissue from BALB/c nude mice. The text has this:
(§1) In addition, the tumor samples from the six treatment groups were randomly collected and probed for the levels of GPX4, and 4‐HNE (4‐hydroxynonenal, a lipid peroxidation marker) by immunohistochemistry (IHC) staining (Figure 7G). […] Collectively, the HSP70‐PROTAC GDAz‐3 has been confirmed as an effective ferroptosis‐inducing agent, which can degrade GPX4 both in vitro and in vivo via UPS and CMA dual processes.
The experimental procedures of the animal experiments were permitted by the Hangzhou Institute of Medicine (HIM), Chinese Academy of Sciences (AP2024‐07‐0010). Male BALB/c nude mice (6 weeks old) were housed under pathogen‐free conditions, maintained at a constant room temperature, and fed standard rodent chow and water. An HT1080 fibrosarcoma xenograft model in nude mice was established through subcutaneous transplantation. When the tumors emerged, the mice were randomly divided into six groups with six mice in each group: […], including the vehicle group, and each of the two inhibitor‐treated groups (ML162 and apoptozole) at 30 mg kg^−1, and their combinations. […] Body weight and tumor size were measured every other day, and the tumor volume and body weight were recorded every other day after drug treatment. After treatment, the animals were euthanized by cervical dislocation, and the tumor bulks were peeled off and weighed. The organ tissues (tumor, heart, liver, spleen, lung, and kidney) were harvested and fixed with 4% paraformaldehyde for hematoxylin‐eosin (H&E) and immunohistochemistry (IHC) staining. In addition, the expression of GPX4 in tumor samples was analyzed in vehicle‐ and GDAz‐3‐treated groups by western blot assay.

The target of a further data set is T2, GPX1 (Homo sapiens, UniProt P07203).
T2 construct: endogenous in cells; host or cells: HT1080
T2 sequence (P07203 1-203): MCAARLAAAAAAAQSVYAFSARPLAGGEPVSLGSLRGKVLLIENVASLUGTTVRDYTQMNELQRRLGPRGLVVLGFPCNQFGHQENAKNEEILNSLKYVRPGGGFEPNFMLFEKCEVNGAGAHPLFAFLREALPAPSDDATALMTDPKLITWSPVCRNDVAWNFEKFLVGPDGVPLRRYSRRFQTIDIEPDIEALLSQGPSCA
The experiment in a line: Western blot of GPX1 in HT1080 cells. Format: cell-based. As to conditions: 24 h.

Data set [2] in a line: Relative drug biodistribution in HT1080 xenograft mice (LC-MS/MS). Format: in vivo, nude mice. As to conditions: 50 mg/kg, 12 h, n = 1.
Description: as §1
GDAz‐3 was intravenously injected into an HT1080‐bearing xenograft tumor mouse model at 50 mg kg^−1. After 12 h of treatment, samples of tumor tissue and major organs, including the heart, liver, spleen, lung, kidney, and intestine, were collected. After weighing, these samples were processed into homogenates, and 500 µL of cold methanol was added. After thorough mixing, the supernatant was generated by centrifugation (4 °C, 12 000 rpm, 15 min), and then analyzed by liquid chromatography‐tandem mass spectrometry (Agilent 6495C Triple Quadrupole LC/MS). In brief, a volume of 1 µL from each sample was extracted and injected into a Waters Acquity Premmier BEH C18 (2.1 × 50 mm, 1.7 µm) column. The solvent delivery module was used to deliver an HPLC gradient of 20–95% B over 7 min (A: 0.1% formic acid in water, B: acetonitrile) at a flow rate of 0.3 mL min^−1. […] The quantification was performed based on peak area. […]

The subject of another data set is SLC7A11. Put plainly: Western blot of SLC7A11 in HT1080 cells. Format: cell-based, human. As to conditions: 24 h.
Data set [3] deals with T1, GPX4. The experiment in a line: In-cell western (ICW) GPX4 degradation in HT1080 cells. Format: cell-based. The arrangement: determine the changes in the endogenous levels of GPX4 by western blot assay; endogenous in cells; host or cells: HT1080 fibrosarcoma cells, including siRNA-knockdown derivatives. Particulars: 24 h. On the procedure:
To further confirm this degradation efficacy, an in‐cell western (ICW) assay, a quantitative immunofluorescence cell‐based technique, was performed to quantify the relative expression level of GPX4 after treatment with GDAz‐3 for 24 h. […] Given the promising GPX4 degradation activity of GDAz‐3, we extended our evaluation to additional ferroptosis‐sensitive cell lines, including triple‐negative breast cancer cells (MDA‐MB‐231) and melanoma cells (mouse B16‐F10). […] Based on the observation that GDAz‐3 was particularly effective in HT1080 cells, we selected this cell line for further degradation mechanism and ferroptosis pharmacodynamics studies.
HT1080 cells were seeded into 96‐well plates at a density of 1 × 10⁴ cells per well and cultured overnight. After 24‐h treatment with the drugs, the culture medium was removed, and 150 µL of 4% paraformaldehyde was added to each well to fix the cells at 4 °C for 20 min. The paraformaldehyde was removed, and 150 µL of 0.2% Triton X‐100 was added to each well. The cells were permeabilized by shaking at room temperature for 30 min. After removing the Triton X‐100, 50 µL of 1% BSA buffer was added to each well, and shaken at room temperature for 90 min. […] The PBS was discarded, and the plates were read using a Typhoon biomolecular imager (Cytiva, GPX4: wavelength 680 nm; GAPDH: 800 nm).

[4] abbreviates: 30 and 60 mg/kg, vs vehicle group.

In the case of `COc1ccc(-c2nc(-c3cc(C(F)(F)F)cc(C(F)(F)F)c3)n(Cc3ccc(C(=O)NCCOCCOCCOCCn4cc(COc5ccc(N(C(=O)CCl)C(C(=O)NCCc6ccccc6)c6cccs6)cc5Cl)nn4)cc3)c2-c2ccc(OC)cc2)cc1` (stereo not shown) [GDAz-3, 4-((2-(3,5-bis(trifluoromethyl)phenyl)-4,5-bis(4-methoxyphenyl)-1H-imidazol-1-yl)methyl)-N-(2-(2-(2-(2-(4-((2-chloro-4-(2-chloro-N-(2-oxo-2-(phenethylamino)-1-(thiophen-2-yl)ethyl)acetamido)phenoxy)methyl)-1H-1,2,3-triazol-1-yl)ethoxy)ethoxy)ethoxy)ethyl)benzamide], at GPX4 [1] (setting [4]), the “4-HNE levels in tumor (IHC)” value is recorded as “increase in 4‐HNE levels” and the “GPX4 levels in tumor (IHC)” value was “reduction in GPX4 levels”. Besides, on GPX4 [1] (single IP injection 50 mg/kg), the “GPX4 protein in HT1080 tumor tissue (western blot)” value is “reduce the level of GPX4 protein over the vehicle control at the 12, 24, and 36 h time points”. For the same compound, the “Effect on GPX1 protein” value at GPX1 is “did not show a significant effect”. For the same compound, the “Concentration in tumor tissue relative to other tissues” value in data set [2] is “significantly higher than that in other tissues”. In addition, the “Effect on SLC7A11 protein” value with SLC7A11 is recorded as “did not show a significant effect”. The compound further registered a DC50 on GPX4 [3] of 250 nM.
